Laboratory results published in PubChem BioAssay (NCI).
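Following 48 hours of exposure in 96-well plates, responses at five concentrations were used to interpolate endpoints linearly. TGI is the concentration that stops growth completely.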

How the values were obtained:
Assay in all cases: inhibition of tumour cell growth, NCI panel, 48 h
[1] = system: UACC-257 melanoma
[2] = system: SK-OV-3 ovarian
[3] = system: HT29 colon
[4] = system: HS 578T breast
[5] = system: ACHN renal
[6] = system: SR leukemia
[7] = system: NCI/ADR-RES ovarian
[8] = system: KM12 colon
[9] = system: IGROV1 ovarian
[10] = system: NCI-H23 lung
[11] = system: SK-MEL-28 melanoma
[12] = system: MDA-MB-231 breast
[13] = system: DU-145 prostate
[14] = system: NCI-H460 lung
[15] = system: OVCAR-3 ovarian
[16] = system: HCT-15 colon
[17] = system: SK-MEL-5 melanoma
[18] = system: SF-268 CNS
[19] = system: NCI-H522 lung
[20] = system: SW-620 colon
[21] = system: BT-549 breast
[22] = system: MOLT-4 leukemia
[23] = system: SN12C renal
[24] = system: MDA-N
[25] = system: U251 CNS
[26] = system: 786-0 renal
[27] = system: LOX IMVI melanoma
[28] = system: MCF7 breast
[29] = system: UO-31 renal
[30] = system: A549 NSCLC
[31] = system: OVCAR-4 ovarian
[32] = system: SNB-75 CNS
[33] = system: MALME-3M melanoma
[34] = system: OVCAR-8 ovarian
[35] = system: EKVX NSCLC
[36] = system: HCC-2998 colon
[37] = system: SF-539 CNS
[38] = system: CAKI-1 renal
[39] = system: RPMI-8226 leukemia
[40] = system: HOP-62 NSCLC
[41] = system: SK-MEL-2 melanoma
[42] = system: PC-3 prostate
[43] = system: OVCAR-5 ovarian
[44] = system: T-47D breast
[45] = system: TK-10 renal
[46] = system: M14 melanoma
[47] = system: MDA-MB-435
[48] = system: SNB-19 CNS
[49] = system: UACC-62 melanoma
[50] = system: NCI-H226 lung
[51] = system: HOP-92 NSCLC
[52] = system: HCT-116 colon
[53] = system: A498 renal
[54] = system: SF-295 CNS
[55] = system: HL-60(TB) leukemia
[56] = system: RXF 393 renal
[57] = system: CCRF-CEM leukemia
[58] = system: K-562 leukemia
[59] = system: COLO 205 colon

For `Cc1cc2c(cc1N)C(C)C1(CCC(=O)N2Cc2ccccc2)OCCO1` (centres undefined), the TGI [1] was greater than 100 µM, the TGI [2] was greater than 100 µM and the TGI [3] was greater than 100 µM. The TGI [4] was greater than 100 µM, the TGI [5] was greater than 100 µM and the TGI [6] was greater than 100 µM. The TGI [7] was greater than 100 µM, the TGI [8] was greater than 100 µM and the TGI [9] was greater than 100 µM. For the same compound, the TGI [10] was greater than 100 µM, the TGI [11] was greater than 100 µM and the TGI [12] was greater than 100 µM. For the same compound, the TGI [13] was greater than 100 µM, the TGI [14] was greater than 100 µM and the TGI [15] was greater than 100 µM. For the same compound, the TGI [16] was greater than 100 µM, the TGI [17] was greater than 100 µM and the TGI [18] was greater than 100 µM. It also gave a TGI [19] greater than 100 µM, a TGI [20] greater than 100 µM and a TGI [21] greater than 100 µM. It also gave a TGI [22] greater than 100 µM, a TGI [23] greater than 100 µM and a TGI [24] greater than 100 µM. The TGI [25] was greater than 100 µM, the TGI [26] was greater than 100 µM and the TGI [27] was greater than 100 µM. It also gave a TGI [28] greater than 100 µM, a TGI [29] greater than 100 µM and a TGI [30] greater than 100 µM. The TGI [31] was greater than 100 µM, the TGI [32] was greater than 100 µM and the TGI [33] was greater than 100 µM. The TGI [34] was greater than 100 µM, the TGI [35] was greater than 100 µM and the TGI [36] was greater than 100 µM. The TGI [37] was greater than 100 µM, the TGI [38] was greater than 100 µM and the TGI [39] was greater than 100 µM. It also gave a TGI [40] greater than 100 µM, a TGI [41] greater than 100 µM and a TGI [42] greater than 100 µM. For the same compound, the TGI [43] was greater than 100 µM, the TGI [44] was greater than 100 µM and the TGI [45] was greater than 100 µM. The TGI [46] was greater than 100 µM, the TGI [47] was greater than 100 µM and the TGI [48] was greater than 100 µM. It also gave a TGI [49] greater than 100 µM, a TGI [50] greater than 100 µM and a TGI [51] greater than 100 µM. For the same compound, the TGI [52] was greater than 100 µM, the TGI [53] was greater than 100 µM and the TGI [54] was greater than 100 µM.
For `CC1=C(C(=O)OC(C)C)C(c2ccccc2C(F)(F)F)C(C(=O)OC(CO[N+](=O)[O-])CO[N+](=O)[O-])=C(C)N1` (centres undefined), the TGI [2] was 38.9 µM, the TGI [55] was greater than 100 µM and the TGI [3] was 26.3 µM. The TGI [4] was 49.8 µM, the TGI [5] was 22.1 µM and the TGI [6] was greater than 100 µM. For the same compound, the TGI [7] was 30.6 µM, the TGI [8] was 18.5 µM and the TGI [9] was 25.9 µM. It also gave a TGI [10] greater than 100 µM, a TGI [56] of 24.7 µM and a TGI [11] of 55.3 µM. It also gave a TGI [12] of 28.2 µM, a TGI [13] greater than 100 µM and a TGI [14] of 42.6 µM. The TGI [15] was 28.3 µM, the TGI [16] was 93.8 µM and the TGI [17] was 11.4 µM. The TGI [18] was 38.7 µM, the TGI [19] was 14.2 µM and the TGI [20] was 23.3 µM. It also gave a TGI [21] of 22.1 µM, a TGI [22] of 9.79 µM and a TGI [23] of 32 µM. The TGI [24] was 21.9 µM, the TGI [25] was 29 µM and the TGI [26] was 14 µM. The TGI [57] was 11.1 µM, the TGI [27] was 21.1 µM and the TGI [28] was 72.2 µM. The TGI [29] was 4.37 µM, the TGI [30] was 33 µM and the TGI [31] was 28.5 µM. It also gave a TGI [32] of 16.7 µM, a TGI [33] of 33 µM and a TGI [35] of 70.2 µM. The TGI [36] was greater than 100 µM, the TGI [37] was 23.2 µM and the TGI [38] was 38.5 µM. The TGI [39] was greater than 100 µM, the TGI [40] was 29.5 µM and the TGI [41] was 47.1 µM. It also gave a TGI [42] of 12.2 µM, a TGI [43] of 46.8 µM and a TGI [44] greater than 100 µM. The TGI [45] was greater than 100 µM, the TGI [46] was 23.9 µM and the TGI [47] was 27.4 µM. It also gave a TGI [48] greater than 100 µM, a TGI [49] of 20.1 µM and a TGI [50] of 38.5 µM. The TGI [58] was 41.7 µM, the TGI [52] was 16.6 µM and the TGI [59] was 63.5 µM. For the same compound, the TGI [54] was 21.8 µM.
